# Target: T1, GCase (Homo sapiens, UniProt P04062)
# T1 construct: endogenous in cells; host or cells: HeLa cells
# T1 sequence (P04062 40-536): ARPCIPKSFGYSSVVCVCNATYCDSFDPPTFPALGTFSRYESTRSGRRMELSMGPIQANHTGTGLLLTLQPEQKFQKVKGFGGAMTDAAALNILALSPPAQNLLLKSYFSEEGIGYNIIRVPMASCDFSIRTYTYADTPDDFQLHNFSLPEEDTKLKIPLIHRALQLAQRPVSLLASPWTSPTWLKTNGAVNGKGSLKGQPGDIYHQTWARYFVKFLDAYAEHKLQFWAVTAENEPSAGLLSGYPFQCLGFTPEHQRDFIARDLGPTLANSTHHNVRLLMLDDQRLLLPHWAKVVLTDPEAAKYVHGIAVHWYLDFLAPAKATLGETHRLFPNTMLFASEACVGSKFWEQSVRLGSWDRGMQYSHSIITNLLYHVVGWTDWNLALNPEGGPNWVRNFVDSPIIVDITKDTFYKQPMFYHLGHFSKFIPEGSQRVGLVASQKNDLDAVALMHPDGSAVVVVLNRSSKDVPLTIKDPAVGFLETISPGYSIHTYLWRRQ
# Test: activation of GCase in a live cell PFB assay in HELA cells
# Type: cell-based
row,EC50 [µM],SMILES
1,< 10,C[C@H](Oc1ccccc1C(F)(F)F)[C@@H]1CCCN(c2cnc3cnn(CC(F)F)c3n2)C1 (racemic) [Compound 5c]
2,< 10,"CC1CC(COc2cccnc2C(F)(F)F)CN(c2cnc3cnn(CC(F)F)c3n2)C1 (single isomer, unassigned) [Compound 47b]"
3,< 10,"C[C@H]1C[C@@H](COc2cccnc2C(F)(F)F)CN(c2cnc3cnn(CC4COC4)c3n2)C1 (single isomer, unassigned) [Compound 233b]"
4,< 10,"CC1CC(COc2cccnc2C(F)(F)F)CN(C(=O)c2ccc3cc[nH]c3c2)C1 (single isomer, unassigned) [Compound 252b]"
5,< 10,"CC1CC(COc2cccnc2C(F)(F)F)CN(c2cncc(-c3nncs3)n2)C1 (single isomer, unassigned) [Compound 262b]"
6,< 10,"FC(F)Cn1ncc2ncc(N3C[C@@H]4[C@@H](COc5cccnc5C(F)(F)F)[C@@H]4C3)nc21 [Compound 1, (1R,5S,6S)-3-[1-(2,2-difluoroethyl)-1H-pyrazolo[3,4-b]pyrazin-6-yl]-6-({[2-(trifluoromethyl)pyridin-3-yl]oxy}methyl)-3-azabicyclo[3.1.0]hexane]"
7,10 to 50,"O=C(c1nnc(C2(c3ccccc3)CCCC2)o1)N1CCCC(COc2ccccc2)C1 (centres unmarked) [Compound 3, (3-(phenoxymethyl)piperidin-1-yl)(5-(1-phenylcyclopentyl)-1,3,4-oxadiazol-2-yl)methanone]"
8,10 to 50,"C[C@@H](Oc1ccccc1C(F)(F)F)[C@@H]1CCCN(c2cnc3cnn(CC(F)F)c3n2)C1 [Compound 5b, 1-(2,2-difluoroethyl)-6-((R)-3-((R)-1-(2-(trifluoromethyl)phenoxy)ethyl)piperidin-1-yl)-1H-pyrazolo[3,4-b]pyrazine]"
9,< 10,O=C(N1CCC(COc2cccc(C(F)(F)F)n2)C1)C1(c2ccccc2)CCOCC1 (centres unmarked) [Compound 6]
10,10 to 50,O=C(Cc1c[nH]c2ccccc12)N1CCC(Oc2ccc(C(F)(F)F)cn2)CC1 [Compound 7]
11,10 to 50,O=C(c1cc(=O)c2cc(Cl)ccc2o1)N1CCCC(COc2ccccc2)C1 (centres unmarked) [Compound 8]
12,10 to 50,CCCC(C(=O)N1CCCC(COc2ccccc2)C1)n1nccc1C1CC1 (centres unmarked) [Compound 9]
13,10 to 50,O=C(N1CCCC(COc2ccccc2)C1)C12CCC(C(F)F)(CC1)C2 (centres unmarked) [Compound 10]
14,10 to 50,O=C(c1ccn(Cc2ccccc2)n1)N1CCCC(COc2ccccc2)C1 (centres unmarked) [Compound 11]
15,10 to 50,COc1ccc(OCCCC(=O)N2CCCC(COc3ccccc3)C2)cc1 (centres unmarked) [Compound 12]
16,< 10,"FC(F)Cn1ncc2ncc(N3CCCC(COc4cccnc4C(F)(F)F)C3)nc21 (centres unmarked) [Compound 13, 3-({1-[1-(2,2-difluoroethyl)pyrazolo[3,4-b]pyrazin-6-yl]piperidin-3-yl}methoxy)-2-(trifluoromethyl)pyridine]"
17,10 to 50,"Cc1ccccc1CCC1CCCN(C(=O)c2cnn(-c3ccccc3)n2)C1 (centres unmarked) [Compound 15, (3-(2-methylphenethyl)piperidin-1-yl)(2-phenyl-2H-1,2,3-triazol-4-yl)methanone]"
18,10 to 50,"CCn1ncc2ncc(N3CCCC(COc4ccccc4C(F)(F)F)C3)nc21 (centres unmarked) [Compound 16, 1-{1-ethylpyrazolo[3,4-b]pyrazin-6-yl}-3-[2-(trifluoromethyl)phenoxymethyl]piperidine]"
19,10 to 50,"O=C(c1ccc2ccn(CC3COC3)c2c1)N1CCC[C@H](CCc2ccccc2C(F)(F)F)C1 [Compound 18, 1-[(oxetan-3-yl)methyl]-6-[(3S)-3-{2-[2-(trifluoromethyl)phenyl]ethyl}piperidine-1-carbonyl]-1H-indole]"
20,10 to 50,"O=C(c1ccc2ccn(C3COC3)c2c1)N1CCC[C@H](CCc2ccccc2C(F)(F)F)C1 [Compound 19, 1-(oxetan-3-yl)-6-[(3S)-3-{2-[2-(trifluoromethyl)phenyl]ethyl}piperidine-1-carbonyl]-1H-indole]"

# Source: US20240262832A1, “SMALL MOLECULE MODULATORS OF GLUCOCEREBROSIDASE ACTIVITY AND USES THEREOF” (Vanqua Bio, Inc., priority 2021, published 2024)
